Measured values from PMC10572602, “Molecular Mechanism of STIL Coiled-Coil Domain Oligomerization” (International Journal of Molecular Sciences, 2023).
Where two headings read alike, the source gives them in different places.

Legend:
[1] = type: physicochemical; details: for Tm: CD 222 nm, Boltzmann fit
Text: (§1) Next, we used circular dichroism (CD) spectroscopy to probe the secondary structures of these WT CCD peptide assemblies. […] The spectra all had minima at 208 and 222 nm indicative of largely α-helical structures. From the high-concentration spectra we estimated ≈47% helix. To compare how the stabilities of these helical assemblies changed with concentration, we followed the changes in MRE222 with temperature over the same concentration range (Figure 2D, Table S1). Sigmoidal curves indicative of cooperative unfolding were apparent at all concentrations, indicating a cooperatively folded, oligomeric species. […] The temperature-dependent CD measurements were performed to determine the oligomerization-dependent thermal stability of the CCD. […] CD spectra of the peptides were recorded using a J-810 spectropolarimeter (Jasco) in a 0.1 cm and 1 cm quartz cuvette for far-UV CD spectroscopy, in a spectral range of 190 nm to 260 nm. The buffer used in the CD measurements was 25 mM sodium phosphate buffer pH = 6.8 with ionic strength of 154 mM (adjected by NaCl). The thermal melting of all STIL CCD peptides were measured as described. The graphs were fitted to Boltzmann equation in order to generate the Tm. Normalization to mean residue ellipticity was performed. The 100% helicity was calculated (with normalization to the length of the peptide and the condition of the measurement) as MRE × 10^−3 of −38 (Deg × cm^2 × dmol^−1 × res^−1).

[2] = CD spectroscopy, helicity; type: physicochemical; details: CD at 50 µM, 5 °C, 25 mM sodium phosphate pH 6.8, 154 mM NaCl; for % Helicity: from MRE222 (100% = −38)
Text: as §1

STIL CCD peptide [3] = assay: AUC sedimentation velocity (SV), oligomeric state; type: physicochemical; details: for oligomeric state (average number of monomers in the oligomer): continuous c(s), 25 mM sodium phosphate pH 6.8, NaCl
Description: Previously, we and others have shown by size-exclusion chromatography and multi-angle light scattering that the oligomerization of a STIL CCD peptide is concentration dependent. However, these studies were qualitative and the interaction was not quantified. To quantify the oligomerisation of the STIL CCD peptide, analytical ultracentrifugation (AUC) sedimentation velocity (SV) and sedimentation equilibrium (SE) experiments were performed (Figure 2A, Table 1 and Figures S4–S9, S18 and S19). AUC-SV experiments were conducted at several concentrations to explore how the oligomeric state changed with concentration in the low-to-high µM concentration range, and also to estimate the dissociation constants of the oligomerization of the STIL CCD peptide.
(§2) Analytical ultracentrifugation (AUC) experiments were carried out using a Beckman Optima XL-A or XL-I analytical ultracentrifuge. Measurements were performed at 20 °C unless otherwise stated, using an An-50 or An-60 rotor, in Sodium Phosphate Buffer pH 6.8 (25 mM Na2PO4 with addition of 137 mM NaCl, pH measured using Jenway (TM) 3510 benchtop and adjusted using 1M HCl and 1M NaOH solutions). The partial specific volume ( υ¯ ) for each peptide were calculated in Sedfit using values from Cohn and Edsall. The buffer densities and viscosities were calculated using UltraScan III [54].
Sedimentation velocity (SV) experiments were performed in EPON 2-channel centerpieces with quartz windows or aluminium centrepieces with sapphire windows. The samples were centrifuged at 50 or 60 krpm where stated, with absorbance measurements taken from a radial range of 5.7–7.3 cm. 120 scans were taken at 5 min intervals, the data were fit in Sedfit to a continuous c(s) distribution model at a 95% confidence level. The frictional ration and baseline were floated, and Time-invariant and Radial-invariant noise were fit. Initially data were fit between a range of Svedberg ratio of 0–15, but this was reduced to 0–3 for all data as there were no larger species. The residuals for each individual fit are shown in Figures S14–S17 as a bitmap in which the color indicates the difference between the model fit and the raw data over the radial range to which the data were fitted. The scans are in vertical chronological order.

STIL CCD peptide [4] = assay: AUC sedimentation equilibrium (SE), oligomeric state; type: physicochemical; details: absorbance 225 nm, 95% confidence limits; for AUC oligomeric state, SE: starting concentrations 5, 10, 20 µM, single ideal species fit, 20 °C, 25 mM phosphate pH 6.8; for mass, single species model, SE: starting concentrations 20, 10 and 5 µM
Description: (§3) To quantify the dissociation constants of the possible monomer-dimer and dimer-tetramer transitions, we used fluorescence-based binding measurements. Using micro-scale thermophoresis, fluorescence measurements were taken at increasing concentrations of WT CCD peptide in a fixed background of 5 µM fluorophore-labelled peptide. […] Fitting the fluorescence data to the Hill equation provided a dissociation constant of 8 ± 2 µM and a cooperativity of 1.2 ± 0.3 (Figure 2B, Table S4). We interpret this as being for the monomer-dimer transition, and that the fluorescence measurements are insensitive to the higher-order oligomerization. […] To probe the possible dimer-tetramer transition, we turned to AUC-SE measurements with starting concentrations of 5, 10, and 20 µM of STIL WT CCD peptide (Figures S18 and S19). The equilibrated data were fitted first to a model for a single ideal species, which provided a species 2.9 × monomer mass (Table 1). […] It should be noted that the dimerization constant of the WT peptide was measured in the presence of 5% DMSO and using a fluorophore-labeled peptide, while the tetramerization constant was measured without DMSO and unlabeled peptides. The addition of the label and the presence of the DMSO, which was unavoidable for making the labeled peptide soluble, may have affected the measured dimerization constant. Thus, we avoid directly comparing the values obtained by the two methods.
as §2
AUC sedimentation equilibrium (SE) experiments were run at multiple concentrations in a 6-Channel Epon charcoal-filled centerpiece. The samples were centrifuged at a range of speeds between 22–48 krpm. Absorbance scans across the radial range were recorded twice at each speed to ensure equilibration. Data were fitted to single, ideal species models or monomer-dimer equilibrium using Sedphat. In total, 95% confidence limits were obtained via Monte-Carlo analysis of the obtained fits. The quality of the fit was evaluated using the χ^2 parameter to observe which model best fit the data. Both fits of the data, where performed in Figures S18–S23 with their corresponding fit information.

STIL CCD peptide [5] = assay: AUC-SE dimer-tetramer model, tetramerization KD; type: binding; details: any experimental conditions; KDs could not be measured
Description: as §3
as §2, with “[54]. […]” for “[54].”

[6] = 50 µM, 25 mM sodium phosphate pH 6.8, 154 mM NaCl
[7] = 10 µM, AUC-SV, 60 krpm, 20 °C, pH 6.8
[8] = 10 µM, AUC-SV, 60 krpm, 20 °C, pH 6.8, 95% confidence level
[9] = 10 µM, AUC-SV, 60 krpm, 20 °C, absorbance, 95% confidence level
[10] = 100 µM, AUC-SV, 60 krpm, 20 °C, pH 6.8
[11] = 100 µM, AUC-SV, 60 krpm, 20 °C, pH 6.8, 95% confidence level
[12] = 100 µM, AUC-SV, 60 krpm, pH 6.8
[13] = 10 µM in legend of Figure S17 (second fit), 60 krpm

| Tm [1, 6] | MRE222 nm [2] | % Helicity [2] | Oligomeric State (at 10 µM) (STIL CCD peptide [3]; 10 µM) | sw (STIL CCD peptide [3]; [7]) | mw (solution mass from c(s) fit) (STIL CCD peptide [3]; [8]) | f/f0 (STIL CCD peptide [3]; 10 µM, AUC-SV, 60 krpm, pH 6.8) | sw(20,w) (STIL CCD peptide [3]; 10 µM, AUC-SV, 60 krpm, pH 6.8) | oligomeric state (average number of monomers in the oligomer) (STIL CCD peptide [3]; [9]) | sw (STIL CCD peptide [3]; [10]) | mw (solution mass from c(s) fit) (STIL CCD peptide [3]; [11]) | f/f0 (STIL CCD peptide [3]; [12]) | sw(20,w) (STIL CCD peptide [3]; [12]) | mass, single species model, SE (STIL CCD peptide [4]) | Substance | AUC oligomeric state, SE (STIL CCD peptide [4]) | dissociation of tetramer (in words) (STIL CCD peptide [5]) | further results |
| --- | --- | --- | --- | --- | --- | --- | --- | --- | --- | --- | --- | --- | --- | --- | --- | --- | --- |
| >95 °C | −25.3 kdeg cm^2 dmol^−1 res^−1 | 67% | Tetramer | 1.484 S | 13538 Da | 1.250 | 1.531 S | 3.56 × monomer mass | 1.573 S | 15867 Da | 1.323 | 1.622 S | 13373 ± 200 Da | L SPDAYRF LTELDRQ LRLLQAQ IQRLLEA QSL-NH2 [STIL CCD718–749 Q729L, STIL CCD peptide with stabilising Q729L mutation; PDB 8oyl] | 3.47 ± 0.05 (5, 10, 20 µM) × monomer mass | could not be dissociated under any experimental conditions | oligomeric state (average number of monomers in the oligomer) (STIL CCD peptide [3]; 100 µM, AUC-SV, 60 krpm, 20 °C, 95% confidence level, listed as STIL-Q729L): 4.1 × monomer mass |
| >95 °C | −30.7 kdeg cm^2 dmol^−1 res^−1 | 81% | Tetramer | 1.452 S | 16229 Da | 1.411 | 1.499 S | 4.22 × monomer mass | – | – | – | – | 12446 ± 129 Da | L SPDLYRF LTELDRQ LRLLQAQ IQRLLEA QSL-NH2 [STIL CCD718–749 A722L Q729L, STIL CCD peptide, double mutant of A722L and Q729L] | 3.24 ± 0.03 (5, 10, 20 µM) × monomer mass | could not be dissociated under any experimental conditions | f/f0 (STIL CCD peptide [3]; [13]): 1.390; sw (STIL CCD peptide [3]; [13]): 1.483 S; sw(20,w) (STIL CCD peptide [3]; [13]): 1.530 S; mw (solution mass from c(s) fit) (STIL CCD peptide [3]; 10 µM in legend of Figure S17 (second fit), 60 krpm, 95% confidence level): 16134 Da; oligomeric state (multiple of monomer mass) (STIL CCD peptide [3]; 10 µM in legend of Figure S17 (second fit), AUC-SV, 60 krpm, 95% confidence level): 4.2 × monomer mass; oligomeric state (average number of monomers in the oligomer) (STIL CCD peptide [3]; 10 µM, AUC-SV, 60 krpm, 20 °C, absorbance, 95% confidence level, listed as STIL-A722L-Q729L): 4.2 × monomer mass |
| >70 °C | −24.9 kdeg cm^2 dmol^−1 res^−1 | 66% | Tetramer | 1.384 S | 15133 Da | 1.458 | 1.428 S | 3.92 × monomer mass | 1.483 S | 15385 Da | 1.403 | 1.514 S | 13541 ± 94 Da | L SPDLYRF LTEQDRQ LRLLQAQ IQRLLEA QSL-NH2 [STIL CCD718–749 A722L, STIL CCD peptide with A722L mutation] | 3.51 ± 0.02 (5, 10, 20 µM) × monomer mass | could not be dissociated under any experimental conditions | Tm ([1]; 3 µM, sodium phosphate pH 6.8): 48.0±0.7 °C; Tm ([1]; 5 µM, sodium phosphate pH 6.8): 52.9±0.9 °C; Tm ([1]; 6 µM, sodium phosphate pH 6.8): 53.6±0.6 °C; Tm ([1]; 10 µM, sodium phosphate pH 6.8): 59.1±0.8 °C; Tm ([1]; 15 µM, sodium phosphate pH 6.8): 63±1 °C; Tm ([1]; 20 µM, sodium phosphate pH 6.8): 68±2 °C; Tm ([1]; 50 µM, 25 mM sodium phosphate pH 6.8, 154 mM NaCl, listed as A722L): over 70 °C; thermal denaturation (in words) ([1]; 50 µM, CD, 25 mM sodium phosphate pH 6.8, 154 mM NaCl): partially denatured; concentration dependence of Tm / thermal stability (in words) ([1]; pH 6.8): the thermal stability of A722L increased with peptide concentration; oligomeric state (average number of monomers in the oligomer) (STIL CCD peptide [3]; 100 µM, AUC-SV, 60 krpm, 20 °C, 95% confidence level, listed as STIL-A722L): 4.0 × monomer mass |
